The test system of series [1] is anti-VEGF antibody. Conditions: for protection of anti-VEGF antibody against oxidation (basic peaks in IEC): AAPH, free Trp 2 or 10 mg/mL.
Series [2] relates to PTH. The experiment in a line: Screening stabilizers for PTH oxidized by AAPH, H2O2 plus Fe(II), H2O2; rp-HPLC. The class given is physicochemical.
The subject of series [3] is PTH. As to conditions: AAPH, FIG. 11.
Series [4] has as its system PTH. The experiment in a line: Screening stabilizers for PTH oxidized by AAPH, H2O2 plus Fe(II), H2O2; rp-HPLC. It counts as physicochemical. As to conditions: for protection of Trp residue in PTH: stress AAPH 1 mM, stabilizer 2 mg/mL; for protection of Trp residue in PTH / protection of PTH against oxidation: 40° C., 6 hours; for protection of PTH against oxidation: stress AAPH. Here is the method:
The protein solution was subsequently stressed by the addition of 1 mM of AAPH, and incubated at 40° C. for 6 hours.
The experiments were carried on a Waters HPLC instrument using a C4 (Vydac, 214TP, 5μ, 2.1×250 mm). The solvent A was 0.1% trifluoracetic acid (TFA) in H2O and the solvent B was 0.08% TFA in acetonitrile. The samples were analyzed with a linear gradient from 20% B to 80% B at a flow rate of 0.2 mL/min in 45 min. The column temperature was set at 30° C.

A short description of series [5]: Anti-VEGF antibody oxidation, IEC chromatogram. As to conditions: for oxidation / oxidative species in basic region of IEC: H2O2.
Setting [6] is: stress H2O2 plus Fe(II) (Fenton reaction), 40° C., 6 hours.

“Also recorded” adds a separate entry of the source. Where two headings read alike, the source gives them in different places.

With `O=C([O-])CN(CCN(CC(=O)[O-])CC(=O)O)CC(=O)O.[Na+].[Na+]` [EDTA, EDTA disodium], the “effect on Trp 50 oxidation of anti-VEGF antibody” value in series [1] (EDTA added as stabilizer) is “inhibited; also recorded: improved stability”.
As for `OC[C@H]1O[C@@](CO)(O[C@H]2O[C@H](CO)[C@@H](O)[C@H](O)[C@H]2O)[C@@H](O)[C@@H]1O` [Sucrose, sucrose], the “protection of PTH against oxidation” value in series [2] (setting [6]) is reported as “less effective than mannitol”.
`CSCC[C@H](N)C(=O)O` [free methionine, L-Methionine]: in series [3], the “Met oxidation of PTH, relative quantification by EIC” value is “suppressed the Met oxidation significantly”. In addition, in series [2] (free Met 2 mg/mL, FIG. 6), the “effect on the oxidation of Trp in PTH (Trp[O] peak)” value is on record as “no effect”. Also, the “oxidation of Met residues in PTH (Met[O]-PTH peaks)” value in series [2] (free Met 2 mg/mL, FIG. 6) is listed as “significantly reduced”. The “protection of PTH against oxidation” value is “protected” in series [2] (stress H2O2, 40° C., 6 hours); “neutralized the effect of the oxidants H2O2” in series [2] (stress H2O2, 40° C., 6 hours, listed as Free Met); “protected” in series [2] (setting [6]); “neutralized the effect of the oxidants H2O2” in series [2] (stress H2O2 plus Fe(II) (Fenton reaction), 40° C., 6 hours, listed as Free Met).
Regarding `N[C@@H](Cc1c[nH]c2ccccc12)C(=O)O` [free tryptophan, L-Tryptophan], the “Trp oxidation of PTH, relative quantification by EIC” value in series [3] was “suppressed the Trp oxidation significantly”. Moreover, the “Met[O]-PTH peaks” value in series [2] (free Trp 2 mg/mL, Fenton reaction) is “much less so”; in series [4] (free Trp 2 mg/mL, AAPH stress), “prominent”. Moreover, the “protection of Trp residue in PTH” value in series [2] (stress Fenton reaction, stabilizer 2 mg/mL, 40° C., 6 hours) is on record as “good protection”; in series [4], “good protection”. Moreover, the “protection of PTH against oxidation” value is recorded as “no protection” in series [2] (stress H2O2, 40° C., 6 hours) and “effective only against the oxidation by AAPH” in series [4]. Also, the “protection of anti-VEGF antibody against oxidation (basic peaks in IEC)” value is recorded as “excellent protection” in series [1], “effective in mitigating oxidation” in series [1] (listed as Free Trp), “dropped to the baseline” in series [1] (listed as free Trp) and “effectively blocked the oxidative reaction” in series [1] (listed as tryptophan).
Consider `OC[C@@H](O)[C@@H](O)[C@H](O)[C@H](O)CO` [mannitol, Mannitol], for which the “protection of PTH against oxidation” value in series [2] (stress H2O2, 40° C., 6 hours) was “not protected by mannitol at all”; in series [2] (setting [6]), “effective; also recorded: complete protection”; in series [4], “not protected by mannitol at all”.
With `Cc1ncc(CO)c(CO)c1O` [pyridoxine], the “protection of Trp residue in PTH” value in series [4] is on record as “excellent protection”.
As for `Cc1c(C)c2c(c(C)c1O)CCC(C)(C(=O)O)O2` (stereo not shown) [trolox, 6-hydroxy-2,5,7,8-tetramethylchroman-2-carboxylic acid], the “protection of Trp residue in PTH” value in series [4] is reported as “excellent protection”.
“anti-VEGF antibody: humanized anti-VEGF antibody fragment, indicated for the treatment of neovascular (wet) age-related macular degeneration”: the “oxidation / peaks in basic region of IEC” value in series [5] (AAPH) is reported as “produced additional peaks in the basic region of IEC chromatogram”. Further, the “oxidation / oxidative species in basic region of IEC” value in series [5] was “did not cause the anti-VEGF antibody oxidation”; in series [5] (listed as anti-VEGF), “no oxidative species in basic region”.

Values taken from US20130171162A1, “COMPOSITIONS AND METHODS FOR THE PREVENTION OF OXIDATIVE DEGRADATION OF PROTEINS” (priority 2008, published 2013).
